ChEMBL document CHEMBL1201862, “PubChem BioAssay data set” (2004)
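Interpolation was linear, between the two tested concentrations surrounding the appropriate level; five concentrations were tested over 48 hours in 96-well plates. GI50: concentration for 50% inhibition of growth.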 Activity calls are given as the source filed them. Rule as the data show it: active = GI50 up to about 1.1 µM and inactive = higher.

How the values were obtained:
Test in all cases: NCI-60 cell line screen, 48 h
HCC 2998 = test system: HCC 2998
SK-OV-3 = test system: SK-OV-3
UACC-257 = test system: UACC-257
SK-MEL-2 = test system: SK-MEL-2
XF498 = test system: XF498
UO-31 = test system: UO-31
HL-60 = test system: HL-60
SNB-75 = test system: SNB-75
M19-MEL = test system: M19-MEL
HOP-92 = test system: HOP-92
OVCAR-4 = test system: OVCAR-4
LXFL 529 = test system: LXFL 529
RPMI-8226 = test system: RPMI-8226
SNB-78 = test system: SNB-78
SK-MEL-28 = test system: SK-MEL-28
SK-MEL-5 = test system: SK-MEL-5
NCI-H522 = test system: NCI-H522
A549 = test system: A549
KM12 = test system: KM12
MOLT-4 = test system: MOLT-4
OVCAR-8 = test system: OVCAR-8
TK-10 = test system: TK-10
Malme-3M = test system: Malme-3M
K562 = test system: K562
EKVX = test system: EKVX
NCI-H23 = test system: NCI-H23
786-0 = test system: 786-0
RXF 393 = test system: RXF 393
SF-268 = test system: SF-268
ACHN = test system: ACHN
DMS-114 = test system: DMS-114
UACC-62 = test system: UACC-62
CCRF-CEM = test system: CCRF-CEM
M14 = test system: M14
DLD-1 = test system: DLD-1
HT-29 = test system: HT-29
SW-620 = test system: SW-620
SF-539 = test system: SF-539
COLO 205 = test system: COLO 205
HOP-62 = test system: HOP-62
OVCAR-3 = test system: OVCAR-3
IGROV-1 = test system: IGROV-1
LOX IMVI = test system: LOX IMVI
CAKI-1 = test system: CAKI-1
A498 = test system: A498
OVCAR-5 = test system: OVCAR-5
SN12C = test system: SN12C
SNB-19 = test system: SNB-19
KM-20L2 = test system: KM-20L2
HCT-116 = test system: HCT-116
SF-295 = test system: SF-295
NCI-H226 = test system: NCI-H226

Measured: GI50

COc1ccc(CNc2cc(OC)cc(OC)c2)cc1
inactive: HCC 2998 > 100 µM | SK-OV-3 > 80 µM | UACC-257 > 91.8 µM | SK-MEL-2 > 85.7 µM | XF498 > 100 µM | UO-31 49.2 µM | HL-60 > 46.5 µM | SNB-75 > 42 µM | M19-MEL > 100 µM | HOP-92 65.5 µM | OVCAR-4 77.1 µM | LXFL 529 85.7 µM | RPMI-8226 58.9 µM | SNB-78 38.1 µM | SK-MEL-28 44.4 µM | SK-MEL-5 60.5 µM | NCI-H522 35.8 µM | A549 > 100 µM | KM12 84.3 µM | MOLT-4 > 81.8 µM | OVCAR-8 > 69.8 µM | TK-10 > 100 µM | Malme-3M > 72.8 µM | K562 22.4 µM | EKVX > 76.6 µM | NCI-H23 > 80.2 µM | 786-0 > 52.2 µM | RXF 393 > 68.4 µM | SF-268 > 62.1 µM | ACHN > 100 µM | DMS-114 49 µM | UACC-62 87.7 µM

C/C(=N\O)C(CN1CCCCC1)C(c1ccccc1)c1c(O)c2ccccc2oc1=O (stereo not given)
inactive: CCRF-CEM > 10 µM | HCC 2998 > 100 µM | M14 > 100 µM | DLD-1 > 100 µM | SK-OV-3 > 100 µM | UACC-257 > 100 µM | HT-29 > 100 µM | SW-620 > 100 µM | SF-539 > 100 µM | COLO 205 > 100 µM | SK-MEL-2 > 100 µM | XF498 > 100 µM | HL-60 > 10 µM | SNB-75 > 100 µM | M19-MEL > 100 µM | HOP-92 62.1 µM | HOP-62 > 100 µM | OVCAR-3 > 100 µM | OVCAR-4 > 100 µM | IGROV-1 > 100 µM | LXFL 529 > 100 µM | RPMI-8226 > 100 µM | SK-MEL-28 > 100 µM | LOX IMVI > 100 µM | CAKI-1 > 100 µM | A498 > 100 µM | SK-MEL-5 > 100 µM | NCI-H522 > 100 µM | A549 > 100 µM | OVCAR-5 > 100 µM | OVCAR-8 > 100 µM | SN12C > 100 µM | TK-10 > 100 µM | Malme-3M > 100 µM | SNB-19 > 100 µM | KM-20L2 > 100 µM | HCT-116 > 100 µM | K562 > 10 µM | EKVX > 100 µM | NCI-H23 > 100 µM | 786-0 > 100 µM | SF-295 54.8 µM | RXF 393 > 100 µM | SF-268 > 100 µM | ACHN > 100 µM | DMS-114 > 100 µM | NCI-H226 > 100 µM | UACC-62 > 100 µM
